Patent US11136297B2, “Compositions and methods for treating cancer” (THE REGENTS OF THE UNIVERSITY OF CALIFORNIA, priority 2016, dated 2021)
“Also recorded” adds a separate entry of the source.

Key:
H-Ras(M72C) GppNHp [1] = molecular target: T1, H-Ras(M72C) GppNHp (Homo sapiens, UniProt P01112, M72C); assay: EDTA catalyzed exchange and subsequent pull-down by Raf-1-RBD (nucleotide preference); assay type: biochemical; design: and H-Ras (residues 1-166) were transformed into Escherichia coli; His6; made in house; host or cells: Escherichia coli BL21(DE3); conditions: EDTA catalyzed exchange, then pull-down by Raf-1-RBD
Description: (§1) FIGS. 29A-29D. […] FIG. 29D: Reconstruction of Ras cycle is achieved by inducing nucleotide exchange of 100 nM Ras by various concentrations of SOS^cat for either 1 or 2 hours and subsequent pull-down by Raf-1-RBD.
(§2) FIGS. 33A-33D. […] In FIG. 33B) through FIG. 33D), normalized pull-down signals are shown below the blot. S. E. M for each signal, number of replicates, and […] for each comparative Standard T-Test are summarized herein (see Tables 33B, 33C, and 33D). […] Comparative statistics were done for normalized pull-down signals between protein constructs of the same condition (i.e. in FIG. 33B) and FIG. 33C), column 1 for unlabeled and 1 for labeled protein, 2 for unlabeled and 2 for labeled, and so on were statistically compared, and in FIG. 33D) only the +SOS^cat and +GppNHp lanes were compared across protein constructs). FIG. 33A) Cartoon representation of pull down protocol. […] Reported values are quantified pull-down signals normalized to input. FIG. 33B) Cartoon representation of pull down protocol. […] FIG. 33C) Cartoon representation of pull down protocol. […] FIG. 33D) Cartoon representation of pull down protocol. Ras activation is achieved by catalyzing nucleotide exchange by SOS^cat and indirectly reading out activated Ras by subsequent pull down by Raf-1-RBD.

[2] = molecular target: T2, full-length wild-type K-Ras (Homo sapiens, UniProt P01116); assay: Disulfide fragment labeling of full-length wild-type K-Ras (Cys 72 selectivity); assay type: binding; conditions: wild-type K-Ras contains 4 native cysteine residues
T2 construct: His6; made in house; host or cells: Escherichia coli BL21(DE3)

H-Ras(M72C) GppNHp [3] = molecular target: T1, H-Ras(M72C) GppNHp; assay: βME50 and percent labeling of tethering fragments, GppNHp state; assay type: binding; design: Labeling studies were conducted using the 1-166 H-Ras(M72C) construct containing all endogenous cysteines; His6; made in house; host or cells: Escherichia coli BL21(DE3)
Description: FIG. 32. […] Percent labeling against H-Ras(M72C) GDP and GppNHp at the screening βME concentration (1 mM) are graphed.
A tethering library of 960 disulfides were screened against 1-169 K-Ras(M72C) GDP using intact protein mass spectrometry to monitor percent modification (See Methods, and FIG. 37). […] To better prioritize tethering fragments, a βME50 value (the concentration of βME needed to reduce disulfide fragment modification to 50%) was determined for each compound. A higher βME50 value corresponds to a better fragment as it can bind with increasing concentrations of competitive thiol (Erlanson et al., 2004; Yang et al., 2009).

[4] = molecular target: T3, H-Ras(M72C) GppNHp binding to Raf-1-RBD (Homo sapiens, UniProt P01112, M72C); assay: Raf-1-RBD pull-down of labeled H-Ras(M72C) GppNHp; conditions: H-Ras(M72C) GppNHp pre-labeled with compound; various concentrations of H-Ras
T3 construct: and H-Ras (residues 1-166) were transformed into Escherichia coli; His6; made in house; host or cells: Escherichia coli BL21(DE3)
Description: as §1, §2

[5] = molecular target: T4, H-Ras(M72C) activation by SOScat (Homo sapiens, UniProt P01112, M72C); assay: SOScat catalyzed nucleotide exchange read out by Raf-1-RBD pull-down; assay type: biochemical
T4 construct: and H-Ras (residues 1-166) were transformed into Escherichia coli; His6; made in house; host or cells: Escherichia coli BL21(DE3)
Description: as §1, §2

- modification of full-length wild-type K-Ras [2]: did not modify
- βME50 (H-Ras(M72C) GppNHp [3]; H-Ras(M72C) GppNHp, βME concentration that reduces fragment modification to 50%): 1.10 mM
- labeling of H-Ras(M72C) GppNHp (H-Ras(M72C) GppNHp [3]; disulfide tethering at Cys 72): readily modifies
SMILES: COc1ccc(-n2ncc(C(=O)NCCCSSCCN(C)C)c2C(F)(F)F)cc1 [Compound 2C07, N-(3-((2-(dimethylamino)ethyl)disulfanyl)propyl)-1-(4-methoxyphenyl)-5-(trifluoromethyl)-1H-pyrazole-4-carboxamide]
- nucleotide preference (H-Ras(M72C) GppNHp [1]): alters intrinsic Ras affinity for nucleotide towards GDP; also recorded: alters Ras nucleotide preference
- Raf-1-RBD binding [4]: does not inhibit Raf binding; also recorded: permits Raf-1-RBD binding
- SOScat catalyzed nucleotide exchange [5]: inhibits activation of H-Ras by SOS^cat; also recorded: inhibits SOS^cat catalyzed nucleotide exchange
